This passage reports Ki results from ChEMBL document CHEMBL1137878, “Synthesis and evaluation of novel oxazoline MMP inhibitors” (Bioorg Med Chem Lett, 2004).

For experiment [1], the target named is T1, Macrophage metalloelastase (Homo sapiens, UniProt P39900). Put plainly: Inhibitory activity against matrix metalloprotease-12; NA denotes no activity upto solubility limit.
Experiment [2] deals with T2, Interstitial collagenase (Homo sapiens, UniProt P03956).
T2 sequence (P03956 whole entry): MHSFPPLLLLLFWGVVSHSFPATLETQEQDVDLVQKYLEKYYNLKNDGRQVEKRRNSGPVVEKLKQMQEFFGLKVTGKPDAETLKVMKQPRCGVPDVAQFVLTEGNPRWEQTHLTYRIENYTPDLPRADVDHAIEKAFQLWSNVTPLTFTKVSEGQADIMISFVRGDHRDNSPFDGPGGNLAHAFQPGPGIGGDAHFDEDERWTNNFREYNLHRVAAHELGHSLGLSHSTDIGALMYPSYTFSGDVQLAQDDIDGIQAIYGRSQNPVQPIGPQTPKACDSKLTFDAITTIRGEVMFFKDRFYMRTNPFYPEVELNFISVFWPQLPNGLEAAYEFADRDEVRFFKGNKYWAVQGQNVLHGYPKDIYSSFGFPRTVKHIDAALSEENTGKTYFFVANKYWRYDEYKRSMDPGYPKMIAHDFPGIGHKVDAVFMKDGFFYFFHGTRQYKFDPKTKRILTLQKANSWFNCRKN
Nature of the experiment: Inhibitory activity against matrix metalloprotease-1; NA denotes no activity upto solubility limit.

The target in experiment [3] is T3, 72 kDa type IV collagenase (Homo sapiens, UniProt P08253). Nature of the experiment: Inhibitory activity against matrix metalloprotease-2; NA denotes no activity upto solubility limit.
The target of experiment [4] is T4, Matrix metalloproteinase-9 (Homo sapiens, UniProt P14780). Nature of the experiment: Inhibitory activity against matrix metalloprotease-9; NA denotes no activity upto solubility limit.
Experiment [5] addresses T2, Interstitial collagenase. Nature of the experiment: Inhibitory activity against matrix metalloprotease-1.
For experiment [6], the target named is T4, Matrix metalloproteinase-9. Nature of the experiment: Inhibitory activity against matrix metalloprotease-9.
Experiment [7] deals with T2, Interstitial collagenase. Nature of the experiment: Inhibitory activity against matrix metalloprotease-1; F denotes no activity was observed upto the concentration that fluorescence could be compensated for.
In experiment [8] the target is T4, Matrix metalloproteinase-9. Put plainly: Inhibitory activity against matrix metalloprotease-9; F denotes no activity was observed upto the concentration that fluorescence could be compensated for.
Experiment [9] deals with T1, Macrophage metalloelastase. Put plainly: Inhibitory activity against matrix metalloprotease-12.
Experiment [10] addresses T3, 72 kDa type IV collagenase. Put plainly: Inhibitory activity against matrix metalloprotease-2.

pKi: −log10 of the molar value.

T3 sequence (P08253 whole entry): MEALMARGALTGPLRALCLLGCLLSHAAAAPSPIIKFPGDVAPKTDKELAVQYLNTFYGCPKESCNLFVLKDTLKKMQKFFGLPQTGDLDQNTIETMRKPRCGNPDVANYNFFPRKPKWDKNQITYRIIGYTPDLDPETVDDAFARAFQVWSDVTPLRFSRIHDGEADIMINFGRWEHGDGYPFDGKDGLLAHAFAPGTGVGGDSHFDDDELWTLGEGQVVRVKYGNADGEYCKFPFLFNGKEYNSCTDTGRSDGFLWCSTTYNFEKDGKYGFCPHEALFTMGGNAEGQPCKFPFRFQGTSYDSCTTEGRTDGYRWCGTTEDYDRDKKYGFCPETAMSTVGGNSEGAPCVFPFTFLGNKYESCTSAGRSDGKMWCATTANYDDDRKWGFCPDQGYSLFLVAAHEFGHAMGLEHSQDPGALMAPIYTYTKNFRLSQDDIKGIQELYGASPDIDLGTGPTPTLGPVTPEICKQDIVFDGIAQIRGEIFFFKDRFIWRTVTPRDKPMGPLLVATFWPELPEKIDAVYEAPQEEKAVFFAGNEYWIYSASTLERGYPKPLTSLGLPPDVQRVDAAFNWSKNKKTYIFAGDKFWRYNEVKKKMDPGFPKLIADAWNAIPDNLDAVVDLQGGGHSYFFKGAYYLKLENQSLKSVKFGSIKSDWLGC
T1 sequence (P39900 whole entry): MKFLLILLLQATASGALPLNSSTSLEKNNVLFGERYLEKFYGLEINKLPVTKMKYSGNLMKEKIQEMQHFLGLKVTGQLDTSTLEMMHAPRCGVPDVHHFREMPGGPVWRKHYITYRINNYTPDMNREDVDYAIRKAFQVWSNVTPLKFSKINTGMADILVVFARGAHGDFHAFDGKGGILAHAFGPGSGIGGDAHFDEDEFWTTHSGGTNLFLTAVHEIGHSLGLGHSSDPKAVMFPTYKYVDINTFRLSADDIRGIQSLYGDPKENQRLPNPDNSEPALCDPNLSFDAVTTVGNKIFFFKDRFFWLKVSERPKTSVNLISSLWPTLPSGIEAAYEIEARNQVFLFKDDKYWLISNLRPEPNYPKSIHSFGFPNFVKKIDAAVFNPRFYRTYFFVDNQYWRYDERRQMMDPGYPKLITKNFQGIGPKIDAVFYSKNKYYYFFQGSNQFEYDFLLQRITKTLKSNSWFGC
T4 sequence (P14780 whole entry): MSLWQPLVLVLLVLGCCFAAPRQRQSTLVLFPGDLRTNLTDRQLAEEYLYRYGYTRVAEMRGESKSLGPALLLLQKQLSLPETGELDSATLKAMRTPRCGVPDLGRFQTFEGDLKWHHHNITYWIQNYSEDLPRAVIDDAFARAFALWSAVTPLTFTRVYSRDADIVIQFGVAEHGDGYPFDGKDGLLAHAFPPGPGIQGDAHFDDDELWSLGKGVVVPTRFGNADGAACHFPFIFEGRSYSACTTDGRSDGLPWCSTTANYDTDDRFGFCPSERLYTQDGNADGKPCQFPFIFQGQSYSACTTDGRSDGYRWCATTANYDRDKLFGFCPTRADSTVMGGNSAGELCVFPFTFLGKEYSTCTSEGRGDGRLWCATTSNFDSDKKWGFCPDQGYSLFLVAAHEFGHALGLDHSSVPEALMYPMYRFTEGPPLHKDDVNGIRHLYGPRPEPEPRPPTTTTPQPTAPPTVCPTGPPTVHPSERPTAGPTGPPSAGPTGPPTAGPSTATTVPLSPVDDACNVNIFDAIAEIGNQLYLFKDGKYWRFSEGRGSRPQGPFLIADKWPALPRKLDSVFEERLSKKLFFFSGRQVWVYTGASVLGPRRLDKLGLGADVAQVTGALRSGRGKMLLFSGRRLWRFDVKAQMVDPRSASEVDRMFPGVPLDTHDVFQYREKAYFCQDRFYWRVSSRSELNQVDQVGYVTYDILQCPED

Consider `C=C[C@@H]1OC(c2ccc(F)cc2)=N[C@H]1CO`, for which the Ki entry in [1], in experiment [2], in [3] and in experiment [4] was “No Activity” throughout.
In the case of `C=C[C@@H]1OC(C2CCCCC2)=N[C@H]1CO`, the Ki result in experiment [1], in [2], in [3] and in experiment [4] was “No Activity” throughout.
Regarding `C=C[C@@H]1OC(CCc2ccccc2)=N[C@H]1CO`, the Ki result in experiment [2], in [3] and in experiment [4] was “No Activity” each time.
With `C=C[C@@H]1OC(c2ccc(C)cc2)=N[C@H]1Sc1ccccc1`, the Ki result in experiment [1] and in experiment [3] was “No Activity” in each case. In experiment [5], this compound showed a pKi of 4.19.
Take `C=C[C@@H]1OC(c2ccc(C)cc2)=N[C@H]1SC(C)=O`: the Ki entry in experiment [1], in experiment [2] and in experiment [3] was “No Activity” each time. In addition, in [6], the pKi was less than 4.00.
Regarding `C=C[C@@H]1OC(c2ccc(-c3ccccc3)cc2)=N[C@H]1Sc1ccccc1`, the Ki result in [2] and in experiment [3] was “No Activity” throughout. This compound had a pKi in experiment [6] of less than 4.00.
Take `C=C[C@@H]1OC(c2ccc(-c3ccccc3)cc2)=N[C@H]1CO`: the Ki result in experiment [2] is given as “No Activity”. The compound further showed a pKi in experiment [6] of 4.62.
Consider `C=C[C@@H]1OC(CCCCCCC)=N[C@H]1CO`, for which the pKi in [6] is less than 2.70.
As to `C=C[C@@H]1OC(c2ccc(-c3ccccc3)cc2)=N[C@H]1SC(C)=O`, the Ki entry in [1] and in [3] was “No Activity” each time. In addition, the pKi in experiment [5] was less than 3.40; in [6] it was 4.09.
The compound `C=C[C@@H]1OC(c2ccc(Cl)cc2)=N[C@H]1SC(C)=O` had a pKi in [5] of less than 4.00. In addition, in [3], the Ki entry is on record as “No Activity”.
In the case of `C=C[C@@H]1OC(c2ccc([N+](=O)[O-])cc2)=N[C@H]1CO`, the Ki result in experiment [7] and in experiment [8] was “Fluorescence interfered with assay” in each case. Further, the pKi in experiment [9] was less than 4.00.
Regarding `C=C[C@@H]1OC(c2ccccc2)=N[C@H]1CO`, the Ki entry in [2] was “No Activity”. Also, the values for the pKi in experiment [9], in experiment [10] and in [6] were less than 2.70, less than 2.70 and less than 2.40, respectively.
For `C=C[C@@H]1OC(c2ccc(C)cc2)=N[C@H]1CO`, the Ki result in [1], in [2] and in experiment [3] was “No Activity” each time. Besides, the pKi in [6] is 4.17.
Consider `C=C[C@@H]1OC(/C=C\C=C\c2ccccc2)=N[C@H]1CO`, for which the negative logarithm of the Ki (pKi) in experiment [5] is 4.49; in experiment [9], 4.31; in [10] it was 3.82; in [6], 5.10.
In turn, `C=C[C@@H]1OC(c2ccc(Br)cc2)=N[C@H]1Sc1ccccc1` gave a pKi in [6] of 4.03.
In the case of `C=C[C@@H]1OC(/C=C/c2ccccc2)=N[C@H]1CO`, in experiment [6], the pKi is 4.40.
Take `C=C[C@@H]1OC(c2ccc(Br)cc2)=N[C@H]1CO`: the Ki result in experiment [2] is “No Activity”. Also, the pKi in [9] was less than 3.52; in [10] it was less than 3.22; in experiment [6], 5.05.
For the compound `C=C[C@@H]1OC(c2ccc(Br)cc2)=N[C@H]1SC(C)=O`, the Ki entry in [1] and in experiment [3] was “No Activity” each time. The results for the pKi in experiment [5] and in [6] were less than 3.70 and 4.06, respectively.
As for `C=C[C@@H]1OC(c2ccc(OC)cc2)=N[C@H]1CO`, the Ki entry in [1], in experiment [2], in [3] and in [4] was “No Activity” each time.
As for `C=C[C@@H]1OC(C#Cc2ccccc2)=N[C@H]1CO`, the Ki entry in experiment [1] and in experiment [3] was “No Activity” in each case. Besides, the results for the pKi in [5] and in [6] were 4.34 and 4.19, respectively.
Regarding `C=C[C@@H]1OC(c2ccc(Cl)cc2)=N[C@H]1CO`, the Ki entry in experiment [1] is listed as “No Activity”. Moreover, the pKi in experiment [5] was less than 3.52; in [6], 4.48.
Turning to `C=C[C@@H]1OC(/C=C/c2ccccc2)=N[C@H]1S`, the Ki result in experiment [1] and in experiment [3] was “No Activity” in each case. Also, the pKi in experiment [5] was 4.04; in experiment [6], 4.03.
For the compound `C=C[C@@H]1OC(c2ccc(Oc3ccccc3)cc2)=N[C@H]1CO`, the pKi in experiment [6] is 4.49.
Regarding `C=CC1=N[C@@H](CO)[C@H](C=C)O1`, the Ki result in experiment [1], in [2], in [3] and in [4] was “No Activity” in each case.
`C=C[C@@H]1OC(/C=C/c2ccccc2)=N[C@H]1SC(C)=O`: the Ki result in experiment [2] was “No Activity”. Besides, the pKi in experiment [9] is less than 3.52; in [6], less than 4.00.
Turning to `C=C[C@@H]1OC(c2ccc(C)cc2)=N[C@H]1S`, the pKi in experiment [5] is less than 4.00; in [9], less than 3.52; in experiment [10] it was 4.06; in experiment [6], less than 4.00.
The compound `C=C[C@@H]1OC(CCCCC)=N[C@H]1CO` had a pKi in experiment [6] of less than 2.70.
As to `C=C[C@@H]1OC(/C=C/c2ccc(Br)cc2)=N[C@H]1CO`, the Ki entry in [1] and in [3] was “No Activity” in each case. For the same compound, the pKi was less than 3.52 in [5] and 4.66 in experiment [6].
Turning to `C=C[C@@H]1OC(c2ccc(Cl)cc2)=N[C@H]1Sc1ccccc1`, the Ki entry in experiment [1] and in experiment [2] was “No Activity” throughout. In addition, the pKi in [6] is less than 3.70.
As to `C=C[C@@H]1OC(c2ccc(Br)cc2)=N[C@H]1S`, the pKi in experiment [5] was less than 3.70; in experiment [6], less than 4.00.
On to `C=C[C@@H]1OC(/C=C/c2ccc(-c3ccccc3)cc2)=N[C@H]1CO`, for which the Ki result in experiment [1], in experiment [3] and in experiment [4] was “No Activity” throughout.
Turning to `C=C[C@@H]1OC(/C=C/c2ccccc2)=N[C@H]1Sc1ccccc1`, the Ki result in experiment [1] and in experiment [3] was “No Activity” in each case. In addition, the pKi in experiment [5] and in experiment [6] was less than 4.00 in each case.
As to `C=C[C@@H]1OC(Cc2ccccc2)=N[C@H]1CO`, the Ki entry in experiment [1] and in [3] was “No Activity” in each case. Further, the pKi is less than 3.30 in experiment [5] and 5.22 in experiment [6].
`C=C[C@@H]1OC(c2ccc(Cl)cc2)=N[C@H]1S`: the Ki result in [1] and in experiment [3] was “No Activity” in each case. In addition, the negative logarithm of the Ki (pKi) in experiment [5] and in [6] was less than 4.00 in each case.
